Reference: patent publication US20220323594A1, “LIPIDATED CATIONIC PEPTIDE-PEG COMPOSITIONS FOR NUCLEIC ACID DELIVERY” (NUTCRACKER THERAPEUTICS, INC., priority 2019, published 2022)

How the values were obtained:
[1] = mRNA encapsulation by fluorescence of Qubit RNA HS dye before and after lysis with Triton X-100; format: physicochemical; conditions: percentage of mRNA encapsulation; Fluc mRNA/peptoid formulation, 5:1 mass ratio
Procedure: (§1) The exemplary amino lipidated cationic peptoids described in Example 2 were combined with firefly luciferase (Fluc) mRNA to form nanoparticle compositions to be evaluated for therapeutic and/or prophylactic purposes in vitro or in vivo. The formulations were prepared according to the protocol of Example 3 and mixed by simple pipetting. The mRNA/peptoid formulation at a 5:1 mass ratio of peptoid:cargo were evaluated by dynamic light scattering (DLS) in order to determine the volume average particle size/diameter (nm) of the mRNA/peptoid complex and the size polydispersity index (PDI) within the formulation. The percentage of mRNA encapsulation for each formulation of the exemplary compounds were determined by fluorescence of the Qubit RNA HS (Invitrogen) dye before and after lysis of particles by Triton X-100.

HeLa cells [2] = assay: In vitro Fluc expression with variable peptoid:mRNA mass ratio, 2% DMG-PEG2000; format: cell-based; conditions: 24 h; for Observed Luciferase Expression (RLU) for Given Formulation Mass Ratio 2:1: 2% (w/w) DMG-PEG2000, peptoid:mRNA 2:1; for Observed Luciferase Expression (RLU) for Given Formulation Mass Ratio 3.5:1: 2% (w/w) DMG-PEG2000, peptoid:mRNA 3.5:1; for Observed Luciferase Expression (RLU) for Given Formulation Mass Ratio 5:1: 2% (w/w) DMG-PEG2000, peptoid:mRNA 5:1; for Observed Luciferase Expression (RLU) for Given Formulation Mass Ratio 7.5:1: 2% (w/w) DMG-PEG2000, peptoid:mRNA 7.5:1
Procedure: The charge ratio dependence of amino lipidated peptoid delivery vehicles was evaluated by formulating particles between Fluc mRNA and delivery vehicles at varying mass ratios. Formulations were varied between 2:1 and 7.5:1 peptoid:mRNA (w/w) ratios (2:1, 3.5:1, 5:1 and 7.5:1). In addition, the role of DMG-PEG2000 was also explored with the mass ratios, either by excluding DMG-PEG2000 or incorporating DMG-PEG2000 at 2% (w/w) relative to amino lipidated peptoid. Fluc expression from these formulations was measured in HeLa cells following treatment for 24 hours. […] FIGS. 6B and 6C show plots of the average bioluminescence (RLU) for HeLa cells treated with the formulations of exemplary amino lipidated cationic peptoid compounds 1-36, all formulated with 2% w/w DMG-PEG2000.

[3] = Dynamic light scattering (DLS) of mRNA/peptoid formulations: particle size and polydispersity; format: physicochemical; conditions: Fluc mRNA/peptoid formulation; for Size PDI: size polydispersity index by DLS, 5:1 mass ratio; for Size (nm): volume average particle size/diameter by DLS, 5:1 mass ratio peptoid:cargo
Procedure: as §1, with “To prepare nanoparticle formulations, the amino lipidated peptoid is mixed by pipetting with nucleic acid at a mass ratio between approximately 1:1 (peptoid:cargo) and 20:1. Prior to formulation, amino lipidated peptoid and nucleic acid cargo were diluted in ethanol and acidic buffer (PBS adjusted to pH 5.5 with 0.1 M HCl) respectively to a volume ratio of 1:3 and to target a final cargo concentration of approximately 0.05 mg/mL to 0.2 mg/mL. The exemplary” for “The exemplary”

HeLa cells [4] = assay: In vitro expression of firefly luciferase (Fluc) after treatment with Fluc mRNA/amino lipidated peptoid formulations, no PEG or 2% DMG-PEG2000; format: cell-based
Procedure: The efficacy of mRNA/amino lipidated peptoid formulations was evaluated in vitro based on their ability to deliver the firefly luciferase (Fluc) reporter gene to cultured cells. Amino lipidated peptoids were combined with Fluc mRNA at a 5:1 w/w ratio, and the resulting particles were added to cultured HeLa cells at a dose of 100 ng/well (in 100 μL total volume). The resulting luciferase expression (RLU) was measured by a luminescence plate reader after 6 hours and 24 hours of treatment. […] In addition to evaluating nanoparticle complexes formed between mRNA cargos and amino lipidated peptoids alone, multicomponent formulations containing a small amount of PEG-lipid DMG-PEG2000 were also tested for in vitro Fluc mRNA delivery. In these formulations, DMG-PEG2000 was pre-mixed with candidate peptoid at an overall 2% incorporation (w/w), while maintaining the same 5:1 mass ratio of peptoid:mRNA used previously.

[5] = MTT viability assay after treatment with Fluc mRNA/amino lipidated peptoid formulations; format: cell-based; conditions: human, HeLa cells
Procedure: Cellular viability was measured following treatment with Fluc mRNA/amino lipidated peptoid formulations by a traditional MTT viability assay. […] In this assay, cells were first treated with peptoid formulations at a final mRNA concentration of 100 ng/well for 8 hours. Cells were then left to grow for 48 hours, after which time they were exposed to 1.5 mg/mL 3-(4,5-dimethylthiazol-2-yl)-2,5-diphenyltetrazolium bromide (MTT) for 2 hours, then lysed using a solubilizing solution of 10% Triton-X 100 in acidic isopropanol (0.1N HCl). The signal corresponding to reduced formazan was normalized to untreated cells to provide a relative viability of each treated condition. […] In general, nearly all conditions maintained at least 80% viability with the only exceptions being formulations of compound 5, 34, and 35.

[6] = no PEG, peptoid:Fluc mRNA 5:1 w/w, 100 ng/well, 6 h of treatment
[7] = no PEG, peptoid:Fluc mRNA 5:1 w/w, 100 ng/well, 24 h of treatment
[8] = with 2% (w/w) DMG-PEG2000, peptoid:mRNA 5:1, 6 h after treatment
[9] = with 2% (w/w) DMG-PEG2000, peptoid:mRNA 5:1, 24 h after treatment

Compound	% Encapsulation [1] [%]	Observed Luciferase Expression (RLU) for Given Formulation Mass Ratio 2:1 (HeLa cells [2]) [RLU]	Observed Luciferase Expression (RLU) for Given Formulation Mass Ratio 3.5:1 (HeLa cells [2]) [RLU]	Observed Luciferase Expression (RLU) for Given Formulation Mass Ratio 5:1 (HeLa cells [2]) [RLU]	Observed Luciferase Expression (RLU) for Given Formulation Mass Ratio 7.5:1 (HeLa cells [2]) [RLU]	Size PDI [3]	Size (nm) [3] [nm]	Luciferase Expression (RLU) 6 h (HeLa cells [4]; [6]) [RLU]	Luciferase Expression (RLU) 24 h (HeLa cells [4]; [7]) [RLU]	Luciferase Expression (RLU) 6 h (HeLa cells [4]; [8]) [RLU]	Luciferase Expression (RLU) 24 h (HeLa cells [4]; [9]) [RLU]	viability at 8 h, 500 ng/well ([5]; Relative Viability (%) 2% PEG) [%]	viability at 8 h, 500 ng/well ([5]; Relative Viability (%) No PEG) [%]	viability at 8 h, 500 ng/well ([5]; viability) [%]
CCCCCCCCN(CC(N)=O)C(=O)CN(CCCCCCCC)C(=O)CN(CCc1ccccc1)C(=O)CN(CCc1ccccc1)C(=O)CN(CCN)C(=O)CN(CCc1ccccc1)C(=O)CN(CCc1ccccc1)C(=O)CN(CCN)C(=O)CN(CCc1ccccc1)C(=O)CN(CCc1ccccc1)C(=O)CNCCN [Compound 1]	90.1	6.82E+02	3.12E+02	2.31E+02	3.35E+01	0.047	356.9	1.22E+02	4.00E+01	2.09E+02	8.67E+00	88.1	97.4	
CCCCCCCCCCCCN(CC(N)=O)C(=O)CN(CCCCCCCCCCCC)C(=O)CN(CCc1ccccc1)C(=O)CN(CCc1ccccc1)C(=O)CN(CCN)C(=O)CN(CCc1ccccc1)C(=O)CN(CCc1ccccc1)C(=O)CN(CCN)C(=O)CN(CCc1ccccc1)C(=O)CN(CCc1ccccc1)C(=O)CNCCN [Compound 3]	95.9	4.42E+03	2.56E+03	4.53E+03	2.69E+03	0.247	255.3	2.27E+02	2.99E+02	3.14E+02	4.68E+02	95.3	91.2	
CCCCCCCCCCCCN(CC(N)=O)C(=O)CN(CCCCCCCCCCCC)C(=O)CN(CCc1ccc(OC)cc1)C(=O)CN(CCc1ccc(OC)cc1)C(=O)CN(CCN)C(=O)CN(CCc1ccc(OC)cc1)C(=O)CN(CCc1ccc(OC)cc1)C(=O)CN(CCN)C(=O)CN(CCc1ccc(OC)cc1)C(=O)CN(CCc1ccc(OC)cc1)C(=O)CNCCN [Compound 4]	99.0	3.27E+03	1.32E+03	7.84E+03	1.14E+03	0.191	326.7	1.96E+02	1.13E+02	3.16E+02	3.09E+02	89.7	90.4	
CCCCCCCCCCCCCCCCCCN(CC(N)=O)C(=O)CN(CCCCCCCCCCCCCCCCCC)C(=O)CN(CCc1ccccc1)C(=O)CN(CCc1ccccc1)C(=O)CN(CCN)C(=O)CN(CCc1ccccc1)C(=O)CN(CCc1ccccc1)C(=O)CN(CCN)C(=O)CN(CCc1ccccc1)C(=O)CN(CCc1ccccc1)C(=O)CNCCN [Compound 5]	88.3	5.81E+02	1.15E+03	9.21E+02	1.14E+03	0.308	364.7	9.60E+01	5.36E+02	3.46E+02	1.22E+02	91.2	56.8	< 80
CCCCCCCCCCN(CC(N)=O)C(=O)CN(CCCCCCCCCC)C(=O)CN(CCCCCCCCCC)C(=O)CN(CCCCCCCCCC)C(=O)CN(CCCCCCCCCC)C(=O)CN(CCCCCCCCCC)C(=O)CN(CCCCCCCCCC)C(=O)CN(CCc1ccccc1)C(=O)CN(CCc1ccccc1)C(=O)CN(CCN)C(=O)CN(CCc1ccccc1)C(=O)CN(CCc1ccccc1)C(=O)CN(CCN)C(=O)CN(CCc1ccccc1)C(=O)CN(CCc1ccccc1)C(=O)CNCCN [Compound 23]	3.9	5.47E+01	1.42E+02	2.07E+02	1.55E+02			5.60E+01	9.47E+01	2.53E+01	2.13E+01	118	108	
CCCCCCCCCCN(CC(N)=O)C(=O)CN(CCCCCCCCCC)C(=O)CN(CCCCCCCCCC)C(=O)CN(CCCCCCCCCC)C(=O)CN(CCc1ccccc1)C(=O)CN(CCc1ccccc1)C(=O)CN(CCNC)C(=O)CN(CCc1ccccc1)C(=O)CN(CCc1ccccc1)C(=O)CN(CCNC)C(=O)CN(CCc1ccccc1)C(=O)CN(CCc1ccccc1)C(=O)CN(CCNC)C(=O)CN(CCc1ccccc1)C(=O)CN(CCc1ccccc1)C(=O)CNCCNC [Compound 26]	35.7	4.91E+02	3.93E+03	6.06E+03	3.19E+03			5.00E+00	1.07E+01	5.85E+02	6.45E+02	91.9	98.8	
